SMILES | melting point [°C]
COc1cccc2[nH]cc(CC(=O)O)c12 | 174 to 176
Cc1c(S(=O)(=O)Cl)cnn1-c1ccccc1Cl | 98 to 100
Cn1cc(Br)c2cc[nH]c(=O)c21 | 195 to 197
Nc1ccc(N2CCCCC2)c2ccncc12 | 149 to 151
COc1nc(O)c2ccccc2n1 | 228 to 230
O=C(O)Cc1sc(-c2ccccc2)nc1-c1cccs1 | 117 to 119
O=C1CCN(C2CC2)CCN1 | 98 to 100
O=c1[nH]cnc2cc3ccccc3cc12 | 282 to 284
O=Cc1cc(F)cc2cccnc12 | 114 to 116
Cc1ccc(-c2csc(=O)[nH]2)cc1 | 219 to 221
ClC(Cl)c1nnc(-c2ccccc2)o1 | 82 to 84
Cc1oc(-c2ccco2)nc1CCl | 58 to 60
CC(C)(C)NS(=O)(=O)c1cc(N)ccc1F | 138 to 140
CC1(c2cccc(C(N)=O)c2)NC(=O)NC1=O (stereo not drawn) | 225 to 227
Cc1ccc(CC(=O)O)cn1 | 159 to 161
NC(=O)NCc1ccccc1Cl | 149 to 151
Sc1ncc(-c2ccccc2)n1-c1ccccc1 | 250 to 252
CCc1csc(-n2cc(C(=O)O)cn2)n1 | 159 to 161
Cc1ccc(S(=O)(=O)CC(C)O)cc1 (stereo not drawn) | 76 to 78
N#Cc1ccc(S(=O)(=O)N2CCC(O)CC2)cc1 | 161 to 163
CS(=O)(=O)NCc1ccc(N)cc1 | 146 to 148
O=c1[nH]c(CO)nc2scc(-c3ccccc3)c12 | 259 to 261
CC(=O)N1CCCc2ccc(S(=O)(=O)Cl)cc21 | 93 to 95
COc1ccccc1NC(=O)CC#N | 87 to 90

SMILES | melting point [°C]
Nc1cccc(Cl)c1Sc1ccccn1 | 87 to 89
CC(=O)NCc1ccc(S(=O)(=O)NCC(=O)O)s1 | 192 to 194
O=C(O)c1csc(-c2cnn(-c3ccccc3)n2)n1 | 239 to 241
CCOC(=O)Cc1ncccc1C(=O)O | 128 to 130
NC(=O)Cn1ncc(Cl)c(Cl)c1=O | 245 to 247
Cc1nn(-c2ccc(Cl)cc2)cc1C(=O)O | 224 to 226
Oc1cccc2ccc(N3CCCCC3)nc12 | 69 to 71
Cc1ncc(CN)n1-c1ccccc1 | 46 to 48
CCCn1c(S)nnc1-c1ccncc1 | 258 to 260
Cc1ccc(CC(=O)c2ccc(C)cc2)cc1 | 100 to 102
O=S(=O)(Nc1nc2ccccc2nc1Cl)c1ccccc1 | 172 to 174
O=C1CC2CCCC(C1)N2Cc1cccs1 | 88 to 90
Cn1c(=O)[nH]c(=O)c2ccc(C(=O)O)nc21 | 305 to 307
Oc1ccnc2c(OC(F)(F)F)cccc12 | 145 to 147
NC(=O)c1ccc(N=C=S)cc1 | 189 to 191
O=C(O)/C=C/c1cccc(Cl)c1Cl | 233 to 235
Nc1snc2ccc([N+](=O)[O-])cc12 | 198 to 200
Nc1ccc(S(=O)(=O)N2CCOCC2)cc1N | 169 to 171
CN(C)S(=O)(=O)c1ccc(NCCO)c(C(=O)O)c1 | 176 to 178
CC(C)CCNC(N)=S | 93 to 95
N#CCNC(=O)CCl | 88 to 90
CN1CCCc2cc(/C=C/C(=O)O)ccc21 | 169 to 171
CCC(C)Oc1cc(C(=O)O)ccn1 (stereo not drawn) | 83 to 85
N#Cc1ccc(CS(N)(=O)=O)cc1 | 154 to 156

SMILES | melting point [°C]
COCCNS(=O)(=O)c1ccc(Br)c(C(=O)O)c1 | 194 to 197
Cc1ccc(Br)cc1NC(=O)CN | 141 to 143
COc1ccc(C(=O)NNC(=O)CCl)cc1OC | 173 to 175
COCC(=O)c1cccc([N+](=O)[O-])c1 | 105 to 107
Cc1ccc(S(=O)(=O)C2CCCCC2=O)cc1 (stereo not drawn) | 77 to 79
O=C(O)c1cnc2ccccc2c1SC1CCCC1 | 111 to 113
Cc1cc(C)n(-c2ccc(Cl)c(C(=O)O)n2)n1 | 184 to 186
CC(N)c1ccc(NC(=O)NC2CC2)cc1 (stereo not drawn) | 142 to 144
N#Cc1c(N2CCOCC2)n[nH]c1N | 195 to 197
O=[N+]([O-])c1ccc2nc(S)oc2c1 | 192 to 194
CC1CN(CC(C)C(=O)NN)CC(C)O1 (stereo not drawn) | 70 to 72
CCS(=O)c1ccccc1C(=O)O (stereo not drawn) | 128 to 130
Cc1sc2ncnc(SCC(=O)O)c2c1C | 215 to 217
Cc1ccc(S(=O)(=O)N2CCOCC2)cc1N | 127 to 135
O=C(O)c1c[nH]c(=O)c(Br)c1 | 307 to 309
CN(C)C(=O)c1ccc(Cl)c(S(N)(=O)=O)c1 | 130 to 132
N#Cc1ccc(CBr)c(F)c1 | 75 to 77
COc1cc2c(cc1OC)CN(C(N)=O)CC2 | 198 to 200
NNc1ccnc2ccccc12 | 155 to 157
NC(=O)NC(=O)CCl | 181 to 183
NNC(=O)c1ccc(NS(=O)(=O)c2cccc([N+](=O)[O-])c2)cc1 | 80 to 82
Nc1c(F)cccc1Oc1ccccc1 | 51 to 53
COC(=O)c1nc(Cl)c2ccccc2c1O | 162 to 164
COc1cccc(COc2cccc(Cl)c2C=O)c1 | 64 to 66

SMILES | melting point [°C]
CC(C)(C(N)=S)c1ccccc1 | 99 to 101
Nc1cccc(-c2ccc3c(c2)OCCO3)n1 | 117 to 119
ClCc1ccc(I)cc1 | 49 to 51
O=S1(=O)C=CC(Br)C1 (stereo not drawn) | 54 to 55
COc1cncc(CCC(=O)O)c1 | 102 to 104
OC1CCN(c2cncc(Cl)n2)C1 (stereo not drawn) | 80 to 82
Cc1occc1-c1cc(N)n(CCO)n1 | 128 to 130
CC1CC1C(=O)NCCC(=O)O (stereo not drawn) | 94 to 96
CCOC(=O)c1c[nH]c2cc(F)c(F)c(F)c2c1=O | 339 to 341
CC(C(=O)O)c1cc2ccccc2o1 (stereo not drawn) | 91 to 93
CS(=O)(=O)c1ccc(-c2nc(CCl)cs2)cc1 | 151 to 153
NCc1cccc(OCC(N)=O)c1 | 89 to 91
O=c1[nH]c(S)nc2c1cnn2-c1cccc(Cl)c1 | 255 to 257
N#Cc1cnn(-c2ccccc2)c1N | 137 to 139
CN(C)S(=O)(=O)Nc1ccccc1Br | 78 to 80
O=C(O)c1cnc(O)cc1O | 293 to 295
CC(Cl)C(=O)Nc1cc(Cl)ccc1Cl (stereo not drawn) | 123 to 125
Nc1ccc(C(=O)OC2CCCC2)cc1 | 55 to 57
O=C(O)Cc1cc2c(cc1[N+](=O)[O-])OCCO2 | 219 to 221
CCOc1cc2c(cc1CBr)OC(C)C2 (stereo not drawn) | 69 to 71
CC(C)(C)OC(=O)NCC1CNc2ccccc21 (stereo not drawn) | 80 to 82
CC(C)CN1C(=O)NC(=O)C1=O | 145 to 148
CC(C)n1c(S)nnc1N(C)C | 127 to 129
COC(=O)C=Cn1c(=O)ccn2ncnc12 | 239 to 241

SMILES | melting point [°C]
NC(=O)c1ccc(N)cc1F | 148 to 150
CC(=O)CC(=O)c1ccc(Cl)cc1 | 67 to 71
COc1cc(C(=O)CBr)ccc1OC(F)F | 45 to 46
CNc1ccccc1S(C)(=O)=O | 96 to 98
COc1cccc(NC(=O)CNc2ccccc2)c1 | 205 to 207
Cc1cc(Br)c(O)c([N+](=O)[O-])c1 | 84 to 86
CC(C)(C)OC(=O)NC1CCC(O)CC1 (stereo not drawn) | 169 to 171
CC(C)n1nccc1C(=O)O | 149 to 151
Cc1cccc(Cl)c1S(N)(=O)=O | 119 to 121
CC(C)c1nc(N)no1 | 39 to 41
Cc1cc(C(=O)O)c2c(C)nn(-c3ccccc3)c2n1 | 195 to 197
OC(c1cnn(-c2ccccc2)c1)C(F)(F)F (stereo not drawn) | 77 to 79
Cc1ccc(S(=O)(=O)Nc2cc(Cl)ccc2C(=O)O)cc1 | 205 to 207
COCCNC(N)=O | 72 to 74
CCNC(=S)n1ncc(C(=O)OCC)c1N | 92 to 96
CCC(C)n1ncc2c(C(=O)O)cc(C3CC3)nc21 (stereo not drawn) | 134 to 136
CS(=O)(=O)Nc1cccc(CN)c1 | 126 to 128
Cc1ccc(-c2nn(Cc3ccccc3)cc2C(=O)O)cc1 | 157 to 159
O=[N+]([O-])c1cc(S(=O)(=O)N2CCOCC2)ccc1O | 217 to 219
COc1ccc(NS(=O)(=O)c2cc(C(=O)O)ccc2C)cc1 | 71 to 73
Cc1ccc2c(c1)C(=O)N(C(C)C(=O)O)C2=O (stereo not drawn) | 141 to 143
O=C1CCN(c2ccc(Cl)cc2)CC1 | 54 to 56
CCOC(=O)Nc1ccc(N)cc1C#N | 166 to 168
O=C(O)C1CCCN(S(=O)(=O)c2ccc3ccccc3c2)C1 (stereo not drawn) | 137 to 139

SMILES | melting point [°C]
COc1cccc(-c2nnn[nH]2)c1 | 181 to 183
O=C(O)Cc1ccc(NC(=O)c2ccc(Br)cc2)cc1 | 269 to 271
CCOc1cc(C=O)cc(Cl)c1O | 145 to 147
CC(C)CN1C(=O)c2ccccc2N2C(=O)CCC12C(=O)O (stereo not drawn) | 105 to 107
CCCOc1ccc(C(N)=S)cc1 | 142 to 144
COc1ccc(CC2CC(=O)N2)cc1 (stereo not drawn) | 97 to 99
Nc1ccc(Oc2cccc(Cl)c2)cc1 | 41 to 43
Cc1ccc(-c2nn(-c3ccccc3)cc2C=CC(=O)O)cc1 | 220 to 222
O=C(O)c1ccc(F)c(S)c1 | 163 to 165
Nc1cc(N2CCOCC2)c(F)cc1[N+](=O)[O-] | 185 to 187
CC(C)Cn1c(N)c(C=O)c(=O)n(C)c1=O | 192 to 194
Fc1ccccc1CNc1ccc(Cl)nn1 | 169 to 171
Fc1cccc(-n2nnnc2S)c1 | 128 to 146
O=C(O)CC1CCc2ccccc2C1 (stereo not drawn) | 80 to 82
NC(=O)CNCC(N)=O | 129 to 131
CNc1ncc(C(F)(F)F)cc1Cl | 44 to 46
O=C(NO)c1ccccc1Br | 182 to 184
O=C(O)c1ccccc1-c1cncnc1 | 228 to 230
Cn1cc([N+](=O)[O-])cc1C(=O)NCC(=O)O | 130 to 132
O=C(O)C1CC1c1ccc(Cl)c(Cl)c1 (stereo not drawn) | 141 to 143
O=C(O)Cc1csc(Cc2ccc(F)cc2)n1 | 137 to 139
Cc1c(Cl)cccc1-n1c(S)nnc1-c1ccncc1 | 322 to 324
CC(C)(C)c1ccccc1S(=O)(=O)Cl | 59 to 61

Reference: a melting point compilation (Tetko et al.)
